Experimental data from PubChem BioAssay (NCI).
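Five concentrations, 48 hours, 96-well plates. TGI: concentration producing complete growth inhibition.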

Key:
Assay in all cases: NCI tumour cell line growth inhibition, 48 h
786-0 renal = system: 786-0 renal
A498 renal = system: A498 renal
A549 NSCLC = system: A549 NSCLC
ACHN renal = system: ACHN renal
BT-549 breast = system: BT-549 breast
CAKI-1 renal = system: CAKI-1 renal
CCRF-CEM leukemia = system: CCRF-CEM leukemia
COLO 205 colon = system: COLO 205 colon
DLD-1 colon = system: DLD-1 colon
DMS 114 small cell lung = system: DMS 114 small cell lung
DMS 273 small cell lung = system: DMS 273 small cell lung
DU-145 prostate = system: DU-145 prostate
EKVX NSCLC = system: EKVX NSCLC
HCC-2998 colon = system: HCC-2998 colon
HCT-116 colon = system: HCT-116 colon
HCT-15 colon = system: HCT-15 colon
HL-60(TB) leukemia = system: HL-60(TB) leukemia
HOP-18 NSCLC = system: HOP-18 NSCLC
HOP-62 NSCLC = system: HOP-62 NSCLC
HOP-92 NSCLC = system: HOP-92 NSCLC
HS 578T breast = system: HS 578T breast
HT29 colon = system: HT29 colon
IGROV1 ovarian = system: IGROV1 ovarian
K-562 leukemia = system: K-562 leukemia
KM12 colon = system: KM12 colon
KM20L2 colon = system: KM20L2 colon
LOX IMVI melanoma = system: LOX IMVI melanoma
LXFL 529 NSCLC = system: LXFL 529 NSCLC
M14 melanoma = system: M14 melanoma
M19-MEL melanoma = system: M19-MEL melanoma
MALME-3M melanoma = system: MALME-3M melanoma
MCF7 breast = system: MCF7 breast
MDA-MB-231 breast = system: MDA-MB-231 breast
MDA-MB-435 = system: MDA-MB-435
MOLT-4 leukemia = system: MOLT-4 leukemia
NCI-H226 lung = system: NCI-H226 lung
NCI-H23 lung = system: NCI-H23 lung
NCI-H460 lung = system: NCI-H460 lung
NCI/ADR-RES ovarian = system: NCI/ADR-RES ovarian
OVCAR-3 ovarian = system: OVCAR-3 ovarian
OVCAR-4 ovarian = system: OVCAR-4 ovarian
OVCAR-5 ovarian = system: OVCAR-5 ovarian
OVCAR-8 ovarian = system: OVCAR-8 ovarian
PC-3 prostate = system: PC-3 prostate
RPMI-8226 leukemia = system: RPMI-8226 leukemia
RXF 393 renal = system: RXF 393 renal
RXF-631 renal = system: RXF-631 renal
SF-268 CNS = system: SF-268 CNS
SF-295 CNS = system: SF-295 CNS
SF-539 CNS = system: SF-539 CNS
SK-MEL-2 melanoma = system: SK-MEL-2 melanoma
SK-MEL-28 melanoma = system: SK-MEL-28 melanoma
SK-MEL-5 melanoma = system: SK-MEL-5 melanoma
SK-OV-3 ovarian = system: SK-OV-3 ovarian
SN12C renal = system: SN12C renal
SNB-19 CNS = system: SNB-19 CNS
SNB-75 CNS = system: SNB-75 CNS
SNB-78 CNS = system: SNB-78 CNS
SR leukemia = system: SR leukemia
SW-620 colon = system: SW-620 colon
T-47D breast = system: T-47D breast
TK-10 renal = system: TK-10 renal
U251 CNS = system: U251 CNS
UACC-257 melanoma = system: UACC-257 melanoma
UACC-62 melanoma = system: UACC-62 melanoma
UO-31 renal = system: UO-31 renal
XF 498 CNS = system: XF 498 CNS
NCI-H522 lung = system: NCI-H522 lung
P388 leukemia = system: P388 leukemia
P388/ADR leukemia = system: P388/ADR leukemia
SN12K1 renal = system: SN12K1 renal

CN(C)CC1CCCC1=O (stereo not drawn)
TGI (786-0 renal): 16 µM
TGI (A498 renal): 27.3 µM
TGI (A549 NSCLC): 49 µM
TGI (ACHN renal): 7.08 µM
TGI (BT-549 breast): 13.8 µM
TGI (CAKI-1 renal): 0.373 µM
TGI (CCRF-CEM leukemia): 0.533 µM
TGI (COLO 205 colon): 1.84 µM
TGI (DLD-1 colon): 1.03 µM
TGI (DMS 114 small cell lung): 2.33 µM
TGI (DMS 273 small cell lung): 3.28 µM
TGI (DU-145 prostate): > 46.9 µM
TGI (EKVX NSCLC): 3.59 µM
TGI (HCC-2998 colon): 4.44 µM
TGI (HCT-116 colon): 2.78 µM
TGI (HCT-15 colon): 2.56 µM
TGI (HL-60(TB) leukemia): 0.374 µM
TGI (HOP-18 NSCLC): 3.16 µM
TGI (HOP-62 NSCLC): 31.3 µM
TGI (HOP-92 NSCLC): 2.97 µM
TGI (HS 578T breast): 56.2 µM
TGI (HT29 colon): 2.06 µM
TGI (IGROV1 ovarian): 21.5 µM
TGI (K-562 leukemia): 0.549 µM
TGI (KM12 colon): 5.85 µM
TGI (KM20L2 colon): 5.32 µM
TGI (LOX IMVI melanoma): 4 µM
TGI (LXFL 529 NSCLC): 1.4 µM
TGI (M14 melanoma): 3.46 µM
TGI (M19-MEL melanoma): 2.33 µM
TGI (MALME-3M melanoma): 2.57 µM
TGI (MCF7 breast): 7.03 µM
TGI (MDA-MB-231 breast): 7.06 µM
TGI (MDA-MB-435): 8.77 µM
TGI (MOLT-4 leukemia): 0.875 µM
TGI (NCI-H226 lung): 30.5 µM
TGI (NCI-H23 lung): 11.7 µM
TGI (NCI-H460 lung): 34.6 µM
TGI (NCI/ADR-RES ovarian): 55.7 µM
TGI (OVCAR-3 ovarian): 2.91 µM
TGI (OVCAR-4 ovarian): 5.58 µM
TGI (OVCAR-5 ovarian): 12.5 µM
TGI (OVCAR-8 ovarian): 8.94 µM
TGI (PC-3 prostate): 22.6 µM
TGI (RPMI-8226 leukemia): 1.93 µM
TGI (RXF 393 renal): 6.63 µM
TGI (RXF-631 renal): 0.377 µM
TGI (SF-268 CNS): 13.6 µM
TGI (SF-295 CNS): 35.8 µM
TGI (SF-539 CNS): 14.8 µM
TGI (SK-MEL-2 melanoma): 19.3 µM
TGI (SK-MEL-28 melanoma): 6.48 µM
TGI (SK-MEL-5 melanoma): 6.71 µM
TGI (SK-OV-3 ovarian): 28.6 µM
TGI (SN12C renal): 2.85 µM
TGI (SNB-19 CNS): 50 µM
TGI (SNB-75 CNS): 9.6 µM
TGI (SNB-78 CNS): 6.12 µM
TGI (SR leukemia): 0.289 µM
TGI (SW-620 colon): 0.517 µM
TGI (T-47D breast): 15.2 µM
TGI (TK-10 renal): 8.04 µM
TGI (U251 CNS): 14.9 µM
TGI (UACC-257 melanoma): 3.5 µM
TGI (UACC-62 melanoma): 11.2 µM
TGI (UO-31 renal): 22.9 µM
TGI (XF 498 CNS): 2.11 µM

COc1cc(/C=C(/C#N)C(N)=O)ccc1O
TGI (A498 renal): > 100 µM
TGI (A549 NSCLC): > 100 µM
TGI (CAKI-1 renal): > 100 µM
TGI (CCRF-CEM leukemia): > 100 µM
TGI (COLO 205 colon): > 100 µM
TGI (DLD-1 colon): > 100 µM
TGI (DMS 114 small cell lung): > 100 µM
TGI (DMS 273 small cell lung): > 100 µM
TGI (EKVX NSCLC): > 100 µM
TGI (HCC-2998 colon): > 82.1 µM
TGI (HCT-116 colon): > 100 µM
TGI (HCT-15 colon): > 100 µM
TGI (HL-60(TB) leukemia): > 100 µM
TGI (HOP-18 NSCLC): > 100 µM
TGI (HOP-62 NSCLC): > 100 µM
TGI (HOP-92 NSCLC): > 100 µM
TGI (HT29 colon): > 100 µM
TGI (IGROV1 ovarian): > 100 µM
TGI (K-562 leukemia): > 100 µM
TGI (KM12 colon): > 100 µM
TGI (KM20L2 colon): > 100 µM
TGI (LOX IMVI melanoma): > 100 µM
TGI (M19-MEL melanoma): > 100 µM
TGI (MALME-3M melanoma): > 100 µM
TGI (MCF7 breast): > 100 µM
TGI (MOLT-4 leukemia): > 100 µM
TGI (NCI-H226 lung): > 100 µM
TGI (NCI-H23 lung): > 100 µM
TGI (NCI-H460 lung): > 100 µM
TGI (NCI-H522 lung): > 100 µM
TGI (NCI/ADR-RES ovarian): > 100 µM
TGI (OVCAR-3 ovarian): > 100 µM
TGI (OVCAR-4 ovarian): > 100 µM
TGI (OVCAR-5 ovarian): > 100 µM
TGI (OVCAR-8 ovarian): > 100 µM
TGI (P388 leukemia): > 100 µM
TGI (P388/ADR leukemia): > 100 µM
TGI (RPMI-8226 leukemia): > 100 µM
TGI (SF-268 CNS): > 100 µM
TGI (SF-295 CNS): > 100 µM
TGI (SF-539 CNS): > 100 µM
TGI (SK-MEL-2 melanoma): > 100 µM
TGI (SK-MEL-28 melanoma): > 100 µM
TGI (SK-MEL-5 melanoma): > 100 µM
TGI (SK-OV-3 ovarian): > 100 µM
TGI (SN12C renal): > 100 µM
TGI (SN12K1 renal): > 100 µM
TGI (SNB-19 CNS): > 100 µM
TGI (SNB-75 CNS): > 85.6 µM
TGI (SNB-78 CNS): > 100 µM
TGI (SW-620 colon): > 100 µM
TGI (U251 CNS): > 100 µM
TGI (UACC-257 melanoma): > 100 µM
TGI (UACC-62 melanoma): > 100 µM
TGI (UO-31 renal): > 100 µM
TGI (XF 498 CNS): > 100 µM
